Assays:
CDK3/CYCLINE = CDK3/CYCLINE (Homo sapiens, UniProt Q00526); conditions: 1 µM, ATP at Km
PLK3 = PLK3 (Homo sapiens, UniProt Q9H4B4); conditions: 1 µM, ATP at Km
SRPK2 = SRPK2 (Homo sapiens, UniProt P78362); conditions: 1 µM, ATP at Km
PRAK = PRAK (Homo sapiens, UniProt Q8IW41); conditions: 1 µM, ATP at Km
TAK1 = TAK1 (Homo sapiens, UniProt O43318); conditions: 1 µM, ATP at Km
PKG1ALPHA = PKG1ALPHA (Homo sapiens, UniProt Q13976); conditions: 1 µM, ATP at Km
CHK2 = CHK2 (Homo sapiens, UniProt O96017); conditions: 1 µM, ATP at Km
ROS = ROS (Homo sapiens, UniProt P08922); conditions: 1 µM, ATP at Km
IRAK4 = IRAK4 (Homo sapiens, UniProt Q9NWZ3); conditions: 1 µM, ATP at Km
MSSK1 = MSSK1 (Homo sapiens, UniProt Q9UPE1); conditions: 1 µM, ATP at Km
MSK1 = MSK1 (Homo sapiens, UniProt O75582); conditions: 1 µM, ATP at Km
FGFR1 = FGFR1 (Homo sapiens, UniProt P11362); conditions: 1 µM, ATP at Km
PI3K BETA = PI3K BETA (Homo sapiens, UniProt P42338); conditions: 1 µM, ATP at Km
ZAP-70 = ZAP-70 (Homo sapiens, UniProt P43403); conditions: 1 µM, ATP at Km
LOK = LOK (Homo sapiens, UniProt O94804); conditions: 1 µM, ATP at Km
ZIPK = ZIPK (Homo sapiens, UniProt O43293); conditions: 1 µM, ATP at Km
MTOR = MTOR (Homo sapiens, UniProt P42345); conditions: 1 µM, ATP at Km
PKCDELTA = PKCDELTA (Homo sapiens, UniProt Q05655); conditions: 1 µM, ATP at Km
MEK1 = MEK1 (Homo sapiens, UniProt Q02750); conditions: 1 µM, ATP at Km
CDK2/CYCLINE = CDK2/CYCLINE (Homo sapiens, UniProt P24941); conditions: 1 µM, ATP at Km
RSK3 = RSK3 (Homo sapiens, UniProt Q15349); conditions: 1 µM, ATP at Km
HIPK2 = HIPK2 (Homo sapiens, UniProt Q9H2X6); conditions: 1 µM, ATP at Km
NEK3 = NEK3 (Homo sapiens, UniProt P51956); conditions: 1 µM, ATP at Km
LYN = LYN (Homo sapiens, UniProt P07948); conditions: 1 µM, ATP at Km
FLT4 = FLT4 (Homo sapiens, UniProt P35916); test: biochemical; conditions: read-out: FLT4 inhibition
PI3 KINASE (P85A) = PI3 KINASE (P85A) (Homo sapiens, UniProt P42336); conditions: 1 µM, ATP at Km
AURKB = AURKB (Homo sapiens, UniProt Q96GD4); conditions: 1 µM, ATP at Km
MLK1 = MLK1 (Homo sapiens, UniProt P80192); conditions: 1 µM, ATP at Km
BMX = BMX (Homo sapiens, UniProt P51813); conditions: 1 µM, ATP at Km
SRC = SRC (Homo sapiens, UniProt P12931); conditions: 1 µM, ATP at Km
PKBGAMMA = PKBGAMMA (Homo sapiens, UniProt Q9Y243); conditions: 1 µM, ATP at Km
TSSK1 = TSSK1 (Homo sapiens, UniProt Q9BXA7); conditions: 1 µM, ATP at Km
PEK = PEK (Homo sapiens, UniProt Q9NZJ5); conditions: 1 µM, ATP at Km
MSK2 = MSK2 (Homo sapiens, UniProt O75676); conditions: 1 µM, ATP at Km
RIPK2 = RIPK2 (Homo sapiens, UniProt O43353); conditions: 1 µM, ATP at Km
EPHB1 = EPHB1 (Homo sapiens, UniProt P54762); conditions: 1 µM, ATP at Km
AURKA = AURKA (Homo sapiens, UniProt O14965); conditions: 1 µM, ATP at Km
SAPK4 = SAPK4 (Homo sapiens, UniProt O15264); conditions: 1 µM, ATP at Km
JAK3 = JAK3 (Homo sapiens, UniProt P52333); conditions: 1 µM, ATP at Km
CK1GAMMA3 = CK1GAMMA3 (Homo sapiens, UniProt Q9Y6M4); conditions: 1 µM, ATP at Km
SNK = SNK (Homo sapiens, UniProt Q9NYY3); conditions: 1 µM, ATP at Km
CDK1/CYCLINB = CDK1/CYCLINB (Homo sapiens, UniProt P06493); conditions: 1 µM, ATP at Km
TIE2 = TIE2 (Homo sapiens, UniProt Q02763); conditions: 1 µM, ATP at Km
TLK2 = TLK2 (Homo sapiens, UniProt Q86UE8); conditions: 1 µM, ATP at Km
PDGFRBETA = PDGFRBETA (Homo sapiens, UniProt P09619); conditions: 1 µM, ATP at Km
PDGFRBETA, sequence (P09619 33-1106): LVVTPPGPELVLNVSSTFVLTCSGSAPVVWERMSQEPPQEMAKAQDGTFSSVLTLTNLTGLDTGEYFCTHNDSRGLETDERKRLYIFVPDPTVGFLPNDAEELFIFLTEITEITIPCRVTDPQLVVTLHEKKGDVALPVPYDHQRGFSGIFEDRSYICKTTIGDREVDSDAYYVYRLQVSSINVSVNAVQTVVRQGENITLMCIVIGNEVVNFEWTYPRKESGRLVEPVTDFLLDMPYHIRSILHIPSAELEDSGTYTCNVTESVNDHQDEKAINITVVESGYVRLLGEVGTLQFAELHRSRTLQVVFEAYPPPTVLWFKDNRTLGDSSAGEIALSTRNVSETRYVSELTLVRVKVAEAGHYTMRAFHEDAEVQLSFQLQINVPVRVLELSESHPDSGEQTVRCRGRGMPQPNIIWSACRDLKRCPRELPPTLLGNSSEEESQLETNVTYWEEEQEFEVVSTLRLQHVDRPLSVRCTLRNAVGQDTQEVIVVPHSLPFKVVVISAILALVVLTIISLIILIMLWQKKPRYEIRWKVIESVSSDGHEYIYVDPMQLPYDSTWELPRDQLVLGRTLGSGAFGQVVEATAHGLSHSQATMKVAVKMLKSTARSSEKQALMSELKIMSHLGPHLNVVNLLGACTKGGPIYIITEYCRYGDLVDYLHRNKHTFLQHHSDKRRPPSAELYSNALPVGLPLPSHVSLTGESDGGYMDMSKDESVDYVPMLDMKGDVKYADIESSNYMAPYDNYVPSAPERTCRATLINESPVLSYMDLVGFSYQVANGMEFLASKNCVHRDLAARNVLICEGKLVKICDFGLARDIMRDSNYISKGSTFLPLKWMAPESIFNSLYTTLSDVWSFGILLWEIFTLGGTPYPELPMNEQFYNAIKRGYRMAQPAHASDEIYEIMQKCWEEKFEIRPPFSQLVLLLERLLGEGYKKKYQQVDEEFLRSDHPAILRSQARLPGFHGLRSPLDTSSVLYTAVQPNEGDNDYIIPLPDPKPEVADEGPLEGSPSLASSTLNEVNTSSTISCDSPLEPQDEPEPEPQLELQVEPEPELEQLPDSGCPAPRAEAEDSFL

MSK1, sequence (O75582 whole entry): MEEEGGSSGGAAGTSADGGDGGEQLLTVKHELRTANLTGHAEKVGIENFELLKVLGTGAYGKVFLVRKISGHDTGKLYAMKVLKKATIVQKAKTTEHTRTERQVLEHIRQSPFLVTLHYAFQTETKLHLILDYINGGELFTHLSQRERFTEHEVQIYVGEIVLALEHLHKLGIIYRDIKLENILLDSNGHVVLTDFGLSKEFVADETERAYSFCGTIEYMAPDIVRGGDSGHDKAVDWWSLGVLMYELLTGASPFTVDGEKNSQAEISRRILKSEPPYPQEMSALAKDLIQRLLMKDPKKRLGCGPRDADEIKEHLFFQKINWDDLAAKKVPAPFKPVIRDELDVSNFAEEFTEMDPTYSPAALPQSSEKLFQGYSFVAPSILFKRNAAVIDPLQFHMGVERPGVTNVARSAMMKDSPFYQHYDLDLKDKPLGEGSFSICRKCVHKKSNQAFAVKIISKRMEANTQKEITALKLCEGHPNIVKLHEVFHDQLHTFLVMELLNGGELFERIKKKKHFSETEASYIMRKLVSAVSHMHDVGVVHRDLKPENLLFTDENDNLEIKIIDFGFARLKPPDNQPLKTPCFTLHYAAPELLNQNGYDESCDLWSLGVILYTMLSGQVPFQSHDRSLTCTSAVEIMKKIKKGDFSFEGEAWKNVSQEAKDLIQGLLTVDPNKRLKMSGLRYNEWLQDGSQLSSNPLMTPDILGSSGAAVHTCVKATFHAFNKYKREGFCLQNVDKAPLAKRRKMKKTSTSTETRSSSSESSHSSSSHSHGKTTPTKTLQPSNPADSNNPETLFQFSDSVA
TSSK1, sequence (Q9BXA7 whole entry): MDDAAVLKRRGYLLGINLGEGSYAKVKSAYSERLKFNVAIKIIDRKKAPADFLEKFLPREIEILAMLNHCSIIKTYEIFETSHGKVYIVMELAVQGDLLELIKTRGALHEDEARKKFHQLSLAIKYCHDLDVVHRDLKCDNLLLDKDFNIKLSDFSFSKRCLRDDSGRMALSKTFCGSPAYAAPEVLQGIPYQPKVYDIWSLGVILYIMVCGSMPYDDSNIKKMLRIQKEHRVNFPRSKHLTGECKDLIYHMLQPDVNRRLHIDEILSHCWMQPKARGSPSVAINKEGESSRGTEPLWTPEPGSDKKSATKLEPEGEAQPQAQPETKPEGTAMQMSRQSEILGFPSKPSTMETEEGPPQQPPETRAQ
NEK3, sequence (P51956 whole entry): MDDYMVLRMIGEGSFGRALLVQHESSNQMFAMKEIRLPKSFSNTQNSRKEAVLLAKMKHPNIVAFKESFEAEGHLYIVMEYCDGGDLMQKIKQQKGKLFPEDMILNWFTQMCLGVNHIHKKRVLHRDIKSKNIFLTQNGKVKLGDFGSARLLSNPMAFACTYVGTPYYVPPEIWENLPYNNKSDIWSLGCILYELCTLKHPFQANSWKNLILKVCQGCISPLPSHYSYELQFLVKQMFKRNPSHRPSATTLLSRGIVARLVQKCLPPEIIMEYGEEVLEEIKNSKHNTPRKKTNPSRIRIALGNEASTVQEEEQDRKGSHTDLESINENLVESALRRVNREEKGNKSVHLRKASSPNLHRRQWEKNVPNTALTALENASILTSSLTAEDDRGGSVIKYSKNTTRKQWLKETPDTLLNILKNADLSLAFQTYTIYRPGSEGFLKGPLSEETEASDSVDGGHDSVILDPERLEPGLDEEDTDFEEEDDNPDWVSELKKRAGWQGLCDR
ROS, sequence (P08922 28-2347): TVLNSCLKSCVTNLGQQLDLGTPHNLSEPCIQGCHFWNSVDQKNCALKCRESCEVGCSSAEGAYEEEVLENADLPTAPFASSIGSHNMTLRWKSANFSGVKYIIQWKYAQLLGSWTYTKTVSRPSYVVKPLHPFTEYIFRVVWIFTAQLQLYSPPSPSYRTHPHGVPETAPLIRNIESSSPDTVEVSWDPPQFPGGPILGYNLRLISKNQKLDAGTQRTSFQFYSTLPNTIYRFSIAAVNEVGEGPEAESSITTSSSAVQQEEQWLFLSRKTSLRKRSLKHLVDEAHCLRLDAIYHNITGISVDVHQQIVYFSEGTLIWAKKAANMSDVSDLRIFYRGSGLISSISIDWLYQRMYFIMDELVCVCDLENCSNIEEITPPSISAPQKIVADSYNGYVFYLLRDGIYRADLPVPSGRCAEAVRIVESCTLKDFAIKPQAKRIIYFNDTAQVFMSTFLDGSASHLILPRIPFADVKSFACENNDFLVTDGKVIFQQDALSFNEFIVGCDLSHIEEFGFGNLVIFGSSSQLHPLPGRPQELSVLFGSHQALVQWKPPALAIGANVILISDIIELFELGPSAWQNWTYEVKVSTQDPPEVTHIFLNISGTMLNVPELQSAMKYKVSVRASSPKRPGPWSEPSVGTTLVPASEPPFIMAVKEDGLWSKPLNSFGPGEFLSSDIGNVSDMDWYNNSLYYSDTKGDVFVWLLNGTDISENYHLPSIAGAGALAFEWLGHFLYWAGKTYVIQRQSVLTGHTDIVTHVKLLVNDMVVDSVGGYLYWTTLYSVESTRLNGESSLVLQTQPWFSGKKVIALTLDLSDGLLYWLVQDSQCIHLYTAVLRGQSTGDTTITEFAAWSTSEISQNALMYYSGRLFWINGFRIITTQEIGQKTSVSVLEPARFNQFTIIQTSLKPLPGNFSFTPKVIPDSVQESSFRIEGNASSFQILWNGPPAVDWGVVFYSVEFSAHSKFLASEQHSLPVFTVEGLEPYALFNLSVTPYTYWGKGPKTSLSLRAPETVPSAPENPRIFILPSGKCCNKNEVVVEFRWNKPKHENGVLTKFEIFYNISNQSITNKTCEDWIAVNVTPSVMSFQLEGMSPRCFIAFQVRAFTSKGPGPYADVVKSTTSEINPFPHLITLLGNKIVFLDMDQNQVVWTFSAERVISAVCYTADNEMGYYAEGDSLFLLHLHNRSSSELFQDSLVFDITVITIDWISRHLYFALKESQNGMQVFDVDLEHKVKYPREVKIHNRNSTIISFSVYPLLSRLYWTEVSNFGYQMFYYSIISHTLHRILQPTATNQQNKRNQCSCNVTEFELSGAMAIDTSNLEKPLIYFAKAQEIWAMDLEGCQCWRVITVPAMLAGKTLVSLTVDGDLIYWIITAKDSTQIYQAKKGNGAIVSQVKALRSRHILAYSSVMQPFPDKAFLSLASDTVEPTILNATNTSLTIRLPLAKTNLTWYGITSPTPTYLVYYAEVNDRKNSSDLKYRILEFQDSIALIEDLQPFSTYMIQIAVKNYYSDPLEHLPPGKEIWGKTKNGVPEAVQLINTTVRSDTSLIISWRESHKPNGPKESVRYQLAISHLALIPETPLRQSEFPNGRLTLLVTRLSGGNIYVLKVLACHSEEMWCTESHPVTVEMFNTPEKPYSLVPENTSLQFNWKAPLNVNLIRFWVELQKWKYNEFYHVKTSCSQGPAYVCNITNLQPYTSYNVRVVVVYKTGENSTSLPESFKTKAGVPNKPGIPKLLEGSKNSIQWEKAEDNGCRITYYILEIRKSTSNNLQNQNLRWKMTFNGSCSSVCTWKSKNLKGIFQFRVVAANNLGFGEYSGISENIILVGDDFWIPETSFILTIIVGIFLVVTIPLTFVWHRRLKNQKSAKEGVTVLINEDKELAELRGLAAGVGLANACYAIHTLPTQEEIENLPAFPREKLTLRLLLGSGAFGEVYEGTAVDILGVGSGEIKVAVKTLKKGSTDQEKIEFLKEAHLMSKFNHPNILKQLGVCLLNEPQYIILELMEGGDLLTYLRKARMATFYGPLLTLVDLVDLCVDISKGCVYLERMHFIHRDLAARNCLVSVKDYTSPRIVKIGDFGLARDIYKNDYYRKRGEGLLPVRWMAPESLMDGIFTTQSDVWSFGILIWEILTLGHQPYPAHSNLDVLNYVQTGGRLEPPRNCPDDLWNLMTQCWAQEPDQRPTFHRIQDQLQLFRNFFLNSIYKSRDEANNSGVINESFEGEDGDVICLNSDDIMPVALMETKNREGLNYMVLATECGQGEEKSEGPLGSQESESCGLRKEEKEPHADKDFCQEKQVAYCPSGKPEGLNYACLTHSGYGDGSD

COC1CN(C(=O)c2ccc3c(N)ncc(-c4ccc(-c5cnn(C)c5)cc4)c3n2)C1 [Compound 51]
percentage effect (CDK3/CYCLINE): 4% | percentage effect (PLK3): -9% | percentage effect (SRPK2): 0% | percentage effect (PRAK): 15% | percentage effect (TAK1): -9% | percentage effect (PKG1ALPHA): 0% | percentage effect (CHK2): -1% | percentage effect (ROS): 14% | percentage effect (IRAK4): -9% | percentage effect (MSSK1): 7% | percentage effect (MSK1): -2% | percentage effect (FGFR1): 10% | percentage effect (PI3K BETA): -3% | percentage effect (ZAP-70): -3% | percentage effect (LOK): 3% | percentage effect (ZIPK): 25% | percentage effect (MTOR): -12% | percentage effect (PKCDELTA): 4% | percentage effect (MEK1): -18% | percentage effect (CDK2/CYCLINE): -1% | percentage effect (RSK3): 4% | percentage effect (HIPK2): -8% | percentage effect (NEK3): -14% | percentage effect (LYN): -1% | inhibition at 1 µM (FLT4): 54% | percentage effect (PI3 KINASE (P85A)): -12% | percentage effect (AURKB): 0% | percentage effect (MLK1): -3% | percentage effect (BMX): -3% | percentage effect (SRC): 7% | percentage effect (PKBGAMMA): -4% | percentage effect (TSSK1): 5% | percentage effect (PEK): -6% | percentage effect (MSK2): 7% | percentage effect (RIPK2): -16% | percentage effect (EPHB1): 13% | percentage effect (AURKA): -3% | percentage effect (SAPK4): 2% | percentage effect (JAK3): 2% | percentage effect (CK1GAMMA3): -18% | percentage effect (SNK): 8% | percentage effect (CDK1/CYCLINB): 1% | percentage effect (TIE2): -6% | percentage effect (TLK2): 2% | percentage effect (PDGFRBETA): 2%

COC1CN(C(=O)c2ccc3c(N)ncc(-c4ccc(-c5cnn(C)c5)cc4)c3c2)C1 [Compound 59]
percentage effect (CDK3/CYCLINE): -5% | percentage effect (PLK3): 5% | percentage effect (SRPK2): -2% | percentage effect (PRAK): -17% | percentage effect (TAK1): -13% | percentage effect (PKG1ALPHA): 17% | percentage effect (CHK2): -10% | percentage effect (ROS): -4% | percentage effect (IRAK4): 1% | percentage effect (MSSK1): 13% | percentage effect (MSK1): 0% | percentage effect (FGFR1): 11% | percentage effect (PI3K BETA): -2% | percentage effect (ZAP-70): -6% | percentage effect (LOK): 1% | percentage effect (ZIPK): -5% | percentage effect (MTOR): -5% | percentage effect (PKCDELTA): 0% | percentage effect (MEK1): -9% | percentage effect (CDK2/CYCLINE): 1% | percentage effect (RSK3): 4% | percentage effect (HIPK2): 16% | percentage effect (NEK3): -2% | percentage effect (LYN): 0% | inhibition at 1 µM (FLT4): 62% | percentage effect (PI3 KINASE (P85A)): 0% | percentage effect (AURKB): 14% | percentage effect (MLK1): -30% | percentage effect (BMX): 1% | percentage effect (SRC): -6% | percentage effect (PKBGAMMA): -6% | percentage effect (TSSK1): -14% | percentage effect (PEK): 1% | percentage effect (MSK2): -12% | percentage effect (RIPK2): -5% | percentage effect (EPHB1): -44% | percentage effect (AURKA): -21% | percentage effect (SAPK4): -13% | percentage effect (JAK3): 14% | percentage effect (CK1GAMMA3): 19% | percentage effect (SNK): 3% | percentage effect (CDK1/CYCLINB): -5% | percentage effect (TIE2): -18% | percentage effect (TLK2): -5% | percentage effect (PDGFRBETA): 17%

— publication PMC4904262 (ACS Medicinal Chemistry Letters, 2016)
